# Assays:
# [1] = Half life in Sprague-Dawley rat at 1 mg/kg, iv by LCMS analysis; type: ADME, organism-based; details: in vivo
# [2] = AUC (infinity) in Sprague-Dawley rat at 1 mg/kg, iv by LCMS analysis; type: ADME, organism-based; parameters: route intravenous, time infinity, dose 1 mg/kg; details: in vivo
# [3] = Stability in mouse liver microsome assessed as half life at 1 uM in presence of NADPH by LC/MS/MS analysis; type: ADME; details: liver microsomes
# [4] = Acute toxicity in fasted mouse assessed as pathological changes in kidney at 2 g/Kg, IG upto 2 weeks after 14 days by H and E staining based analysis; type: tissue-based; details: in vivo, po, 2000 mg/kg, 336 h
# in vitro [5] = details: rat, liver microsomes
# [6] = Stability in rat liver microsome assessed as binding constant at 1 uM in presence of NADPH by LC/MS/MS analysis; details: microsomes
# [7] = Acute toxicity in fasted mouse assessed as behavioral changes at 2 g/Kg, IG upto 2 weeks; details: in vivo, po, 2000 mg/kg, 336 h
# [8] = MRT (infinity) in Sprague-Dawley rat at 5 mg/kg, po by LCMS analysis; type: ADME, organism-based; details: in vivo
# [9] = Acute toxicity in fasted mouse assessed as pathological changes in heart at 2 g/Kg, IG upto 2 weeks after 14 days by H and E staining based analysis; type: tissue-based; details: in vivo, po, 2000 mg/kg, 336 h
# [10] = Oral bioavailability in Sprague-Dawley rat at 5 mg/kg by LCMS analysis; type: ADME, organism-based; details: in vivo
# [11] = AUC (all) in Sprague-Dawley rat at 1 mg/kg, iv by LCMS analysis; type: ADME, organism-based; parameters: dose 1 mg/kg; details: in vivo
# [12] = AUC (all) in Sprague-Dawley rat at 5 mg/kg, po by LCMS analysis; type: ADME, organism-based; parameters: dose 5 mg/kg; details: in vivo
# [13] = Cmax in Sprague-Dawley rat at 1 mg/kg, iv by LCMS analysis; type: ADME, organism-based; parameters: route intravenous, dose 1 mg/kg; details: in vivo
# [14] = Acute toxicity in fasted mouse assessed as pathological changes in spleen at 2 g/Kg, IG upto 2 weeks after 14 days by H and E staining based analysis; type: tissue-based; details: in vivo, po, 2000 mg/kg, 336 h
# [15] = Half life in Sprague-Dawley rat at 5 mg/kg, po by LCMS analysis; type: ADME, organism-based; details: in vivo
# [16] = Stability in mouse liver microsome assessed as binding constant at 1 uM in presence of NADPH by LC/MS/MS analysis; type: ADME; details: microsomes
# in vitro [17] = details: human, liver microsomes
# [18] = AUC (infinity) in Sprague-Dawley rat at 5 mg/kg, po by LCMS analysis; type: ADME, organism-based; parameters: route oral, time infinity, dose 5 mg/kg; details: in vivo
# [19] = Acute toxicity in fasted mouse assessed as mouse death at 2 g/Kg, IG; details: in vivo, po, 2000 mg/kg
# [20] = Clearance in Sprague-Dawley rat at 1 mg/kg, iv; type: ADME, organism-based; details: in vivo
# in vitro [21] = details: rat, liver microsomes; remark: listed apart in the source
# [22] = MRT (infinity) in Sprague-Dawley rat at 1 mg/kg, iv by LCMS analysis; type: ADME, organism-based; details: in vivo
# [23] = Intrinsic clearance in mouse liver microsome at 1 uM in presence of NADPH by LC/MS/MS analysis; type: ADME; details: liver microsomes, read-out: CLH
# [24] = Stability in human liver microsome assessed as binding constant at 1 uM in presence of NADPH by LC/MS/MS analysis; details: microsomes
# [25] = Acute toxicity in fasted mouse assessed as pathological changes in liver at 2 g/Kg, IG upto 2 weeks after 14 days by H and E staining based analysis; type: tissue-based; details: in vivo, po, 2000 mg/kg, 336 h
# [26] = Tmax in Sprague-Dawley rat at 5 mg/kg, po by LCMS analysis; type: ADME, organism-based; details: in vivo
# [27] = Acute toxicity in fasted mouse assessed as pathological changes in brain at 2 g/Kg, IG upto 2 weeks after 14 days by H and E staining based analysis; type: tissue-based; details: in vivo, po, 2000 mg/kg, 336 h
# [28] = Acute toxicity in fasted mouse assessed as weight loss at 2 g/Kg, IG upto 2 weeks; details: in vivo, po, 2000 mg/kg, 336 h
# in vitro [29] = details: human, liver microsomes; remark: listed apart in the source
# [30] = Acute toxicity in fasted mouse assessed as pathological changes in lung at 2 g/Kg, IG upto 2 weeks after 14 days by H and E staining based analysis; type: tissue-based; details: in vivo, po, 2000 mg/kg, 336 h
smiles,measurement,setting,value
Cl.N#Cc1ccc(Nc2nccc(Nc3c(F)cc(-c4ccncc4)cc3F)n2)cc1,half-life,[1],45.6 min
same,AUC(0-inf),[2],531 ng·h/mL
same,half-life at 1 µM,[3],27 min
same,Activity,[4],Non-Toxic
same,microsomal CLint at 1 µM,in vitro [5],43 µL/min/mg
same,K,[6],0.0215 min⁻¹
same,Activity,[7],Non-Toxic
same,MRT inf,[8],101 min
same,Activity,[9],Non-Toxic
same,bioavailability,[10],126%
same,AUC,[11],526 ng·h/mL
same,AUC,[12],3340 ng·h/mL
same,Cmax,[13],1370 ng/mL
same,Activity,[14],Non-Toxic
same,half-life,[15],50.4 min
same,K,[16],0.0259 min⁻¹
same,microsomal CLint at 1 µM,in vitro [17],28 µL/min/mg
same,AUC(0-inf),[18],3350 ng·h/mL
same,Activity,[19],Non-Toxic
same,clearance,[20],32 mL/min/kg
same,half-life at 1 µM,in vitro [21],32 min
same,MRT inf,[22],50.4 min
same,microsomal CLint at 1 µM,[23],52 µL/min/mg
same,K,[24],0.0142 min⁻¹
same,Activity,[25],Non-Toxic
same,Tmax,[26],34.8 min
same,Activity,[27],Non-Toxic
same,Activity,[28],Non-Toxic
same,half-life at 1 µM,in vitro [29],49 min
same,Activity,[30],Non-Toxic

# From ChEMBL document CHEMBL5032511, “Improving Druggability of Novel Diarylpyrimidine NNRTIs by a Fragment-Based Replacement Strategy: From Biphenyl-DAPYs to Heteroaromatic-Biphenyl-DAPYs” (J Med Chem, 2021)
